How the values were obtained:
Plasmodium falciparum = test: In vitro anti-protozoal activity against Plasmodium falciparum Ghana; format: functional, organism-based
Trypanosoma cruzi = test: In vitro anti-protozoal parasite activity against Trypanosoma cruzi TC-1; format: functional, organism-based
MRC5 = test: In vitro cytotoxicity against cell line MRC-5; format: functional, cell-based; conditions: Homo sapiens
Trypanosoma brucei = test: In vitro anti-protozoal parasite activity against Trypanosoma brucei TB-1; format: functional, organism-based
Leishmania infantum = test: In vitro anti-protozoal parasite activity against Leishmania infantum L1 strain; format: functional, organism-based

Q: Which results are given for O=C(O)CCC(=O)OC12CCCCC1C1CCCCC1(O)OO2 (stereo unspecified)?
A: IC50 (Plasmodium falciparum): 1 µM; IC50 (Trypanosoma cruzi): 13 µM; IC50 (MRC5): 13 µM; IC50 (Trypanosoma brucei): 4 µM; IC50 (Leishmania infantum): > 32 µM

Q: With O=C(O)CCCC(=O)OC12CCCCC1C1CCCCC1(O)OO2 (stereo unspecified) as the molecule, how does the IC50 (Plasmodium falciparum) read?
A: The IC50 was 19 µM.

Q: And the IC50 (Trypanosoma cruzi)?
A: The IC50 was 15 µM.

Q: What about the IC50 (MRC5) of the same molecule?
A: Its IC50 is > 32 µM.

Q: And the IC50 (Trypanosoma brucei)?
A: The IC50 was 16 µM.

Q: And the IC50 (Leishmania infantum)?
A: The IC50 was > 32 µM.

Q: What does the source list for CC1CCCC2C3CCCC(C)C3(O)OOC12O (stereo unspecified)?
A: IC50 (Plasmodium falciparum): > 32 µM; IC50 (Trypanosoma cruzi): > 32 µM; IC50 (MRC5): > 32 µM; IC50 (Leishmania infantum): > 32 µM

Q: What does the source list for OC12CCCCC1C1CCCCC1(O)OO2 (stereo unspecified)?
A: IC50 (Plasmodium falciparum): 0.1 µM; IC50 (Trypanosoma cruzi): 24 µM; IC50 (MRC5): 10 µM; IC50 (Trypanosoma brucei): 13 µM; IC50 (Leishmania infantum): > 32 µM

Q: With COC12CCCCC1C1CCCCC1(O)OO2 (stereo unspecified) as the molecule, how does the IC50 (Plasmodium falciparum) read?
A: The IC50 was 5 µM.

Q: What about the IC50 (Trypanosoma cruzi) of the same molecule?
A: Its IC50 is 8 µM.

Q: What about the IC50 (MRC5) of the same molecule?
A: The IC50 was 8 µM.

Q: What about the IC50 (Trypanosoma brucei) of the same molecule?
A: Its IC50 is 16 µM.

Q: What about the IC50 (Leishmania infantum) of the same molecule?
A: The IC50 was > 32 µM.

Q: Which IC50 (Plasmodium falciparum) does the source give for O=C(O)CC(=O)OC12CCCCC1C1CCCCC1(O)OO2 (stereo unspecified) here?
A: Its IC50 is 6 µM.

Q: What about the IC50 (Trypanosoma cruzi) of the same molecule?
A: Its IC50 is > 32 µM.

Q: And the IC50 (MRC5)?
A: Its IC50 is > 32 µM.

Q: What about the IC50 (Trypanosoma brucei) of the same molecule?
A: Its IC50 is 10 µM.

Q: And the IC50 (Leishmania infantum)?
A: The IC50 was > 32 µM.

Q: Which results are given for O=C(O)CCCCC(=O)OC12CCCCC1C1CCCCC1(O)OO2 (stereo unspecified)?
A: IC50 (Plasmodium falciparum): > 32 µM; IC50 (Trypanosoma cruzi): 19 µM; IC50 (MRC5): > 32 µM; IC50 (Trypanosoma brucei): 17 µM; IC50 (Leishmania infantum): > 32 µM

Q: CO[C@H]1O[C@@H]2O[C@@]3(C)CC[C@H]4[C@H](C)CC[C@@H]([C@H]1C)[C@@]24OO3 [ARTEMETHER] was tested. Which IC50 (Plasmodium falciparum) did it give?
A: The IC50 was 0.025 µM.

Q: Which IC50 (Trypanosoma brucei) does the source give for Cc1ccc(C(=O)Nc2ccc(S(=O)(=O)O)c3cc(S(=O)(=O)O)cc(S(=O)(=O)O)c23)cc1NC(=O)c1cccc(NC(=O)Nc2cccc(C(=O)Nc3cc(C(=O)Nc4ccc(S(=O)(=O)O)c5cc(S(=O)(=O)O)cc(S(=O)(=O)O)c45)ccc3C)c2)c1 [SURAMIN HEXASODIUM] here?
A: The IC50 was 0.043 µM.

— ChEMBL document CHEMBL1136538, “1,4-Dihydroxy-2,3-dioxatricyclo[8.4.0.0(4,9)]tetradecane and derivatives with in vitro activity against Plasmodium falciparum, Trypanasoma b brucei, Trypanasoma cruzi, and Leishmaniasis infantum” (Bioorg Med Chem Lett, 2003)
